For one experiment, the target named is binding of tPA and PAI-1 (Homo sapiens, UniProt P05121). As to the kind of experiment: Inhibition of tPA/PAI-1 complex formation (SDS-PAGE, silver staining, densitometry). To be noted: recombinant PAI-1 + IMD-4690 in PBS 37°C 5 min, then tPA 37°C 5 min; tPA/PAI-1 complex band densitometry. The procedure: Fig 1 Schedule of in vivo experiments and biological activity of IMD-4690. (A) Protocols for the mouse experiments. (B) Inhibitory effects of IMD-4690 on the binding of tPA and PAI-1. The recombinant PAI-1 and IMD-4690 were mixed and incubated in PBS at 37°C for 5 min. Then tPA was added. After incubation at 37°C for 5 min, samples were applied for 10% SDS-PAGE and visualized with a silver staining. The bands of tPA/PAI-1 complex were quantified by a densitometry, and calculated IC50.
Sequence of binding of tPA and PAI-1 (P05121 24-402): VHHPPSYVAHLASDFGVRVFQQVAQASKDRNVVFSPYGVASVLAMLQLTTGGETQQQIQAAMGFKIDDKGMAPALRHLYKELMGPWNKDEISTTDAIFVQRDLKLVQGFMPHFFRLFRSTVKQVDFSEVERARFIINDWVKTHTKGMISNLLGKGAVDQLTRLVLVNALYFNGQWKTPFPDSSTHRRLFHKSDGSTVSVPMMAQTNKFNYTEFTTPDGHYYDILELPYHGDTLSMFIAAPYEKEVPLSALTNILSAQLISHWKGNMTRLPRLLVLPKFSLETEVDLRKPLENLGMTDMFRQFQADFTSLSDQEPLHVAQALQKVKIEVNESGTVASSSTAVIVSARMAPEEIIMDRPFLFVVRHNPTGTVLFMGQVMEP
A synthetic PAI-1 inhibitor, IMD-4690, 2-[[3-(4-tert-Butylphenoxy)-4'- (trifluoromethoxy) [1,1'-biphenyl]-4-yl]oxy] acetic acid, was molecularly designed, synthesized. IMD-4690 inhibited the binding of tPA and PAI-1 at the IC50 of 8 μM (Fig. 1B).

For experiment [1], the system named is chronic allergen exposure model of bronchial asthma in mice. As to the kind of experiment: Mediators in lung homogenates (ELISA/activity kits), chronic Dp exposure asthma model. In kind it is in vivo, mouse. The procedure:
(§1) All mice were sensitized on days 0 and 7 by intraperitoneal injections of 10 μg of Dp dissolved in 500 μL saline and mixed with 1mg of Alum (Sigma-Aldrich Japan). Dp-sensitized mice were challenged intranasally with 10 μg (10 μL) Dp in 70 μL saline on alternate days, 3 days per week, from days 14 to 67. The mice were also treated intraperitoneally with IMD-4690 (10 mg/kg) (Dp/IMD group) or CMC alone (Dp/CMC group) at the same day with Dp challenge. As a control, mice were challenged with saline and given CMC during this period (control/CMC group) (Fig. 1A). Each experiment was performed using six mice per group.
The right lungs were frozen until analyzed. Frozen tissue were solubilized by homogenization in lysis buffer (Cell Signaling Technology, Inc., Danvers, Mass., USA) containing 1 tablet of Complete Protease Inhibitor Cocktail Tablets, EDTA-free (Santa Cruz Biotechnology, Inc., Santa Cruz, CA, USA), per 25 mL of buffer by using an Ultramicro homogenizer set (I.S.O.,Inc., Yokohama, Japan). Samples of the homogenate were centrifuged at 15,000 rpm for 10 min. The supernatants were stored at -80°C.
Protein concentrations were determined by the BCA method (Pierce, Rockford, IL, USA). Cytokines, growth factors, enzymes, and serum IgE were determined using commercial ELISA kits. ELISA kits and their sensitivities were as follows: IL-4, -5, -12, -13, TNF-α, IFN-γ, VEGF, TGF-β, total MMP-9, and TIMP-1 (R&D Systems, Minneapolis, MN, USA), with sensitivities of 2, 7, 2.5, 1.5, 5.1, 2, 3, 1.7, 7, and 1.4 pg/mL, respectively; active and total PAI-1 (Innovative Research Inc., Sarasota, FL, USA) with sensitivities of 20 and 32 pg/mL; active MMP-9 (MMP-9 Biotrak Activity Assay, GE Healthcare, Buckinghamshire, UK) with a sensitivity of 0.5 ng/mL; HGF (Rat HGF determination kit by EIA, Institute of Immunology Co., Ltd., Tokyo, Japan) with a sensitivity of 0.4 ng/mL; and serum IgE (ELISA mouse IgE kit, Seikagaku Biobussiness Corp., Tokyo, Japan) with a sensitivity of 0.5 ng/mL.

Experiment [2] shares this test system. Nature of the experiment: Lung resistance (RL) by restrained whole body plethysmography, chronic Dp asthma model. The class given is in vivo, mouse. To be noted: at 25 and 50 mg/mL of Mch, day 70, 10 mg/kg i.p., vs Dp/CMC mice. The protocol: as §1
Seventy-two hours after the final challenge (day 70), lung resistance (RL) was measured by restrained whole body plethysmography (Buxco Electronics). Mice were anesthetized by 6 mg/mL 2,2,2-tribromoethanol with 2-methyl-2-butanol. Then mice were tracheostomized and cannulated with a 19-gauge tracheostomy tube, and were placed in the chamber for plethysmography and mechanically ventilated. Aerosolized β-methacholine (Mch) was administered by an in-line aerosol delivery system at different concentrations (6.25, 12.5, 25, and 50 mg/mL). After each Mch challenge, data were continuously collected, and values of RL were taken to express the changes in these functional parameters. The data were expressed as the percentage change from baseline RL obtained after inhalation of saline.

The test system is the same in experiment [3]. As to the kind of experiment: BALF cell classification, chronic Dp asthma model. In kind it is in vivo, mouse. Particulars: 10 mg/kg i.p., vs Dp/CMC mice. The procedure:
as §1
After measurement of lung resistance, the mice were euthanized humanely by cutting the axillary artery to obtain serum samples. Following sacrifice, bronchoalveolar lavage was performed twice with saline (0.8 mL) by using a soft cannula. After counting the cell numbers in the BALF using the automated cell viability analyzer Vi-Cell (Beckman Coulter, Calif., USA), BALF samples were cytospun onto glass slides and stained with Diff-Quick (Baxter, Miami, Fla., USA) for classification.

Experiment [4] has the same test system. As to the kind of experiment: Total lung collagen (Sircol assay), chronic Dp asthma model. In kind it is in vivo, mouse. Particulars: day 70, 10 mg/kg i.p., vs Dp/CMC mice. The procedure: as §1
The left lungs were harvested on day 70 and used for collagen assays. Total lung collagen was determined using a Sircol Collagen Assay kit (Biocolor Ltd, Belfast, Northern Ireland) according to the manufacturer’s instructions.

[5] abbreviates: BALB/c mice, Dp challenge 8 weeks, 10 mg/kg i.p., vs Dp/CMC mice.
Where [6] appears, read: Dp/IMD mice (10 mg/kg i.p.) vs Dp/CMC mice.
[7] abbreviates: ELISA, 10 mg/kg i.p., vs Dp/CMC mice.

Turning to `CC(C)(C)c1ccc(Oc2cc(-c3ccc(OC(F)(F)F)cc3)ccc2OCC(=O)O)cc1` [IMD-4690, 2-[[3-(4-tert-Butylphenoxy)-4'-(trifluoromethoxy) [1,1'-biphenyl]-4-yl]oxy] acetic acid], at binding of tPA and PAI-1, the half-maximal inhibitory concentration (IC50) worked out at 8 µM. In experiment [1] (10 mg/kg i.p., vs Dp/CMC mice), the “IFN-γ production in lung homogenates” value is on record as “inhibited”, the “IL-4 level in lung homogenates” value is “significantly decreased”, the “IL-5 level in lung homogenates” value is “significantly decreased” and the “IL-13 level in lung homogenates” value is “significantly decreased”. Also, in experiment [1] (10 mg/kg i.p., vs Dp/CMC mice), the “Ratio of active MMP-9/TIMP-1 in lung homogenates” value is recorded as “significantly restored” and the “TNF-α production in lung homogenates” value is on record as “inhibited”. Also, in experiment [1] (setting [5]), the “Level of active PAI-1 in lung homogenates” value is given as “significantly reduced” and the “Level of total PAI-1 in lung homogenates” value is “significantly reduced”. Also, in experiment [1] (setting [6]), the “HGF levels in lung homogenates” value is recorded as “significantly higher” and the “Proportion of active PAI-1 as a percentage of the total PAI-1 in lung homogenates” value was “significantly lower”. In experiment [1] (setting [7]), the “Active form of TGF-β1 in lung homogenates” value is reported as “significantly reduced”; the “Total MMP-9 levels in lung homogenates” value was “tended to decrease the total MMP-9 levels, although no significant differences were observed”; the “VEGF concentration in lung homogenates and BALF” value is listed as “significantly reduced”. For the same compound, the “Airway resistance (RL)” value in experiment [2] is given as “significantly reduced”. In experiment [3], the “Number of eosinophils in BALF” value is “significantly decreased” and the “Number of lymphocytes in BALF” value was “significantly decreased”. Also, in experiment [4], the “Total collagen in the lungs” value is listed as “reduced”.

Source of the values: PMC4364779, “IMD-4690, a Novel Specific Inhibitor for Plasminogen Activator Inhibitor-1, Reduces Allergic Airway Remodeling in a Mouse Model of Chronic Asthma via Regulating Angiogenesis and Remodeling-Related Mediators” (PLoS ONE, 2015).
